Data from patent publication US12344603B2 (Genentech, Inc., priority 2020, dated 2025).
Counter-ions that a name gives are not always drawn.

molecular target: IRE1α (Homo sapiens (Human), UniProt O75460, D688N); assay: IRE1α TR-FRET competition binding assay (IRE1α HTRF); conditions: TR-FRET competition binding to kinase domain of IRE1α
Protocol: IRE1α TR-FRET Competition Binding Assay. The affinity of compound binding to the kinase domain of IRE1α was determined using a time-resolved fluorescence resonance energy transfer (TR-FRET) competition assay.
The purified protein (final concentration 0.25 nM) was pre-incubated with anti-His Europium labeled antibody (Life Technologies PV5596, final concentration 2 nM) for one hour at 4° C. in TR-FRET Assay Buffer (50 mM HEPES, pH 7.5, 10 mM MgCl2, 0.083 mM Brij 35, 1 mM DTT, and 0.1% bovine gamma globulin) prior to addition to test compounds. An Alexa fluor 647-labeled probe based on an ATP competitive inhibitor was added to a final concentration of 2 nM. Reactions were carried out for one hour at room temperature in a final volume of 20 μL in 384 well white ProxiPlates (Perkin Elmer 6008289). Binding of the probe to the IRE1α protein was detected in an Envision instrument (PerkinElmer) equipped with a TRF laser option and a LANCE/Delfia Dual/Bias D400/D630 mirror (Ex 347 nm, 1st Em 665 nm, 2nd Em 615 nm).

Sequence of IRE1α (O75460 547-977 D688N): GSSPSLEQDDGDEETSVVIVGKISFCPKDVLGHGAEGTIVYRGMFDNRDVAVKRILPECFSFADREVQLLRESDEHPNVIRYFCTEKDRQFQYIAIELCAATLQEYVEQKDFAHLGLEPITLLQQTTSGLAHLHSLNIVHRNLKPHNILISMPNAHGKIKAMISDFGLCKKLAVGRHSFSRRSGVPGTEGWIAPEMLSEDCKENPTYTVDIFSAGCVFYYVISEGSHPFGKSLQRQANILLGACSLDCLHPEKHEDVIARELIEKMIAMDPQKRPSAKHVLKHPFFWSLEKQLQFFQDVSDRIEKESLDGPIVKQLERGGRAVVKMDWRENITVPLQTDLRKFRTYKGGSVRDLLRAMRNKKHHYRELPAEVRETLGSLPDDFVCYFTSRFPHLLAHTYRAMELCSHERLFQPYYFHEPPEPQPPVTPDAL

Q: Which IC50 does the source give for `CCN(C)[C@H]1CC[C@H](Nc2ncc3cc(-c4ccc(NS(=O)(=O)CCC(F)(F)F)c(F)c4)c(=O)n(C(C)C)c3n2)CC1` [Compound 205, N-(4-(2-(((1,4-trans)-4-(Ethyl(methyl)amino)cyclohexyl)amino)-8-isopropyl-7-oxo-7,8-dihydropyrido[2,3-d]pyrimidin-6-yl)-2-fluorophenyl)-3,3,3-trifluoropropane-1-sulfonamide] here?
A: Its IC50 is 0.14 nM.

Q: `O=c1c(-c2ccc(NS(=O)(=O)Cc3ccccc3)c(F)c2F)cc2cnc(N[C@@H]3CNC[C@@H](F)C3)nc2n1C1CC1` [Compound 10, N-(4-(8-cyclopropyl-2-(((3S,5S)-5-fluoropiperidin-3-yl)amino)-7-oxo-7,8-dihydropyrido[2,3-d]pyrimidin-6-yl)-2,3-difluorophenyl)-1-phenylmethanesulfonamide] was tested. Which IC50 did it give?
A: The IC50 was 1.1 nM.

Q: For `CC(C)n1c(=O)c(-c2ccc(NS(=O)(=O)c3ccccc3OC(F)(F)F)nc2)cc2cnc(N[C@H]3CC[C@H](N(C)C)CC3)nc21` [Compound 150, N-(5-(2-(((1r,4r)-4-(Dimethylamino)cyclohexyl)amino)-8-isopropyl-7-oxo-7,8-dihydropyrido[2,3-d]pyrimidin-6-yl)pyridin-2-yl)-2-(trifluoromethoxy)benzenesulfonamide], which IC50 is on record?
A: The IC50 was 0.26 nM.

Q: With `CC(C)n1c(=O)c(-c2cc(F)c(NS(=O)(=O)Cc3ccc(F)cc3)cc2F)nc2cnc(N[C@H]3CC[C@H](N(C)C)CC3)nc21` [Compound 174, N-(4-(2-(((1r,4r)-4-(Dimethylamino)cyclohexyl)amino)-8-isopropyl-7-oxo-7,8-dihydropteridin-6-yl)-2,5-difluorophenyl)-1-(4-fluorophenyl)methanesulfonamide hydrochloride] as the compound, how does the IC50 read?
A: The IC50 was 0.26 nM.

Q: With `CC(C)n1c(=O)c(-c2ccc(NS(=O)(=O)CCC(F)F)c(F)c2)nc2cnc(N[C@@H]3CNC[C@H](CF)C3)nc21` [Compound 78, 3,3-Difluoro-N-[2-fluoro-4-[2-[[(3S,5R)-5-(fluoromethyl)-3-piperidyl]amino]-8-isopropyl-7-oxo-pteridin-6-yl]phenyl]propane-1-sulfonamide] as the compound, how does the IC50 read?
A: The IC50 was 1 nM.

Q: `CC(C)n1c(=O)c(-c2cc(F)c(NS(=O)(=O)Cc3ccc(F)cc3)c(F)c2F)nc2cnc(N[C@@H]3CNC[C@@H](F)C3)nc21` [Compound 171, 1-(4-Fluorophenyl)-N-(2,3,6-trifluoro-4-(2-(((3S,5S)-5-fluoropiperidin-3-yl)amino)-8-isopropyl-7-oxo-7,8-dihydropteridin-6-yl)phenyl)methanesulfonamide hydrochloride] was tested. Which IC50 did it give?
A: Its IC50 is 0.12 nM.

Q: With `CC(C)n1c(=O)c(-c2cc(F)c(NCC(O)C(F)(F)F)c(F)c2F)cc2cnc(N[C@H]3CC[C@H](N(C)C)CC3)nc21` (stereo partly shown) [Compound 99, 2-(((1r,4r)-4-(Dimethylamino)cyclohexyl)amino)-8-isopropyl-6-(2,3,5-trifluoro-4-((3,3,3-trifluoro-2-hydroxypropyl)amino)phenyl)pyrido[2,3-d]pyrimidin-7(8H)-one] as the compound, how does the IC50 read?
A: The IC50 was 46 nM.

Q: With `CC(C)n1c(=O)c(-c2ccc(NS(=O)(=O)CCC(F)(F)F)c(F)c2)cc2cnc(N[C@@H]3CNC[C@@H](F)C3)nc21` [Compound 92, 3,3,3-Trifluoro-N-(2-fluoro-4-(2-(((3S,5S)-5-fluoropiperidin-3-yl)amino)-8-isopropyl-7-oxo-7,8-dihydropyrido[2,3-d]pyrimidin-6-yl)phenyl)propane-1-sulfonamide] as the compound, how does the IC50 read?
A: The IC50 was 0.3 nM.

Q: For `Cc1ccc(CS(=O)(=O)Nc2c(F)cc(-c3nc4cnc(N[C@@H]5CNC[C@@H](F)C5)nc4n(C(C)C)c3=O)c(F)c2F)cc1` [Compound 170, 1-p-Tolyl-N-(2,3,6-trifluoro-4-(2-(((3S,5S)-5-fluoropiperidin-3-yl)amino)-8-isopropyl-7-oxo-7,8-dihydropteridin-6-yl)phenyl)methanesulfonamide hydrochloride], which IC50 is on record?
A: The IC50 was 0.13 nM.

Q: With `CC(C)n1c(=O)c(-c2ccc(NS(=O)(=O)c3ccccc3Cl)c(F)c2)nc2cnc(N[C@@H]3CNC[C@@H](F)C3)nc21` [Compound 75, 2-Chloro-N-[2-fluoro-4-[2-[[(3S,5S)-5-fluoro-3-piperidyl]amino]-8-isopropyl-7-oxo-pteridin-6-yl]phenyl]benzenesulfonamide] as the compound, how does the IC50 read?
A: The IC50 was 0.3 nM.

Q: How did the IC50 turn out when `CC(C)n1c(=O)c(-c2ccc(NS(=O)(=O)CC3CC4C(C3)C4(F)F)c(F)c2)nc2cnc(N[C@H]3CC[C@H](N(C)C)CC3)nc21` (stereo partly shown) [Example 265, 1-(6,6-Difluoro-3-bicyclo[3.1.0]hexanyl)-N-[4-[2-[[4-(dimethylamino)cyclohexyl]amino]-8-isopropyl-7-oxo-pteridin-6-yl]-2-fluorophenyl]methanesulfonamide] was run?
A: The IC50 was 0.2 nM.

Q: Which IC50 does the source give for `CCn1c(=O)c(-c2cc(F)c(NS(=O)(=O)Cc3ccc(C(F)(F)F)cc3)c(F)c2F)cc2cnc(N[C@@H]3CNC[C@@H](F)C3)nc21` [Compound 50, N-(4-(8-ethyl-2-(((3S,5S)-5-fluoropiperidin-3-yl)amino)-7-oxo-7,8-dihydropyrido[2,3-d]pyrimidin-6-yl)-2,3,6-trifluorophenyl)-1-(4-(trifluoromethyl)phenyl)methanesulfonamide hydrochloride] here?
A: The IC50 was 0.22 nM.

Q: How did the IC50 turn out when `COc1nc(NS(=O)(=O)c2ccccc2Cl)ccc1-c1cc2cnc(N[C@H]3CC[C@H](N(C)C)CC3)nc2n(C(C)C)c1=O` [Compound 131, 2-Chloro-N-(5-(2-(((1r,4r)-4-(dimethylamino)cyclohexyl)amino)-8-isopropyl-7-oxo-7,8-dihydropyrido[2,3-d]pyrimidin-6-yl)-6-methoxypyridin-2-yl)benzenesulfonamide] was run?
A: Its IC50 is 0.21 nM.

Q: How did the IC50 turn out when `CC(C)n1c(=O)c(-c2c(F)cc(NS(=O)(=O)Cc3ccc(F)cc3)cc2F)cc2cnc(N[C@@H]3CNC[C@@H](F)C3)nc21` [Compound 130, N-(3,5-Difluoro-4-(2-(((3S,5S)-5-fluoropiperidin-3-yl)amino)-8-isopropyl-7-oxo-7,8-dihydropyrido[2,3-d]pyrimidin-6-yl)phenyl)-1-(4-fluorophenyl)methanesulfonamide hydrochloride] was run?
A: The IC50 was 0.38 nM.

Q: Which IC50 does the source give for `CC(C)n1c(=O)c(-c2ccc(NS(=O)(=O)CC34CCC(CC3)C4)c(F)c2)nc2cnc(N[C@H]3CC[C@H](N(C)C)CC3)nc21` [Example 270, N-[4-[2-[[4-(Dimethylamino)cyclohexyl]amino]-8-isopropyl-7-oxo-pteridin-6-yl]-2-fluoro-phenyl]-1-norbornan-1-yl-methanesulfonamide] here?
A: Its IC50 is 0.3 nM.

Q: Which IC50 does the source give for `CC(C)n1c(=O)c(-c2ccc(NS(=O)(=O)CC3CCCC3)c(F)c2)cc2cnc(N[C@H]3CC[C@H](N(C)C)CC3)nc21` [Compound 109, 1-Cyclopentyl-N-(4-(2-(((1r,4r)-4-(dimethylamino)cyclohexyl)amino)-8-isopropyl-7-oxo-7,8-dihydropyrido[2,3-d]pyrimidin-6-yl)-2-fluorophenyl)methanesulfonamide] here?
A: Its IC50 is 0.13 nM.

Q: Which IC50 does the source give for `Cc1nc(NS(=O)(=O)c2ccccc2Cl)ccc1-c1cc2cnc(N[C@H]3CC[C@H](N(C)CCF)CC3)nc2n(C(C)C)c1=O` [Compound 145, 2-Chloro-N-(5-(2-(((1r,4r)-4-((2-fluoroethyl)(methyl)amino)cyclohexyl)amino)-8-isopropyl-7-oxo-7,8-dihydropyrido[2,3-d]pyrimidin-6-yl)-6-methylpyridin-2-yl)benzenesulfonamide] here?
A: The IC50 was 0.27 nM.

Q: For `CC(C)n1c(=O)c(-c2c(F)cc(NS(=O)(=O)CCC(F)(F)F)cc2F)nc2cnc(N[C@H]3CC[C@H](N(C)C)CC3)nc21` [Compound 169, N-(4-(2-(((1r,4r)-4-(Dimethylamino)cyclohexyl)amino)-8-isopropyl-7-oxo-7,8-dihydropteridin-6-yl)-3,5-difluorophenyl)-3,3,3-trifluoropropane-1-sulfonamide], which IC50 is on record?
A: Its IC50 is 0.69 nM.

Q: With `CCn1c(=O)c(-c2cc(NS(=O)(=O)Cc3ccccc3)nn2C)cc2cnc(N[C@@H]3CNC[C@@H](F)C3)nc21` [Compound 69, N-(5-(8-ethyl-2-(((3S,5S)-5-fluoropiperidin-3-yl)amino)-7-oxo-7,8-dihydropyrido[2,3-d]pyrimidin-6-yl)-1-methyl-1H-pyrazol-3-yl)-1-phenylmethanesulfonamide] as the compound, how does the IC50 read?
A: Its IC50 is 98 nM.

Q: Which IC50 does the source give for `COc1ccc(CS(=O)(=O)Nc2c(F)cc(-c3cc4cnc(N[C@@H]5CNC[C@@H](F)C5)nc4n(C(C)C)c3=O)c(F)c2F)cc1` [Compound 57, 1-(4-Methoxyphenyl)-N-(2,3,6-trifluoro-4-(2-(((3S,5S)-5-fluoropiperidin-3-yl)amino)-8-isopropyl-7-oxo-7,8-dihydropyrido[2,3-d]pyrimidin-6-yl)phenyl)methanesulfonamide] here?
A: The IC50 was 0.14 nM.

Q: Which IC50 does the source give for `CC(C)n1c(=O)c(-c2cc(F)c(NS(=O)(=O)CCC(F)(F)F)cc2F)cc2cnc(N[C@H]3CC[C@H](N(C)C)CC3)nc21` [Compound 71, N-(4-(2-(((1,4-trans)-4-(Dimethylamino)cyclohexyl)amino)-8-isopropyl-7-oxo-7,8-dihydropyrido[2,3-d]pyrimidin-6-yl)-2,5-difluorophenyl)-3,3,3-trifluoropropane-1-sulfonamide formate] here?
A: The IC50 was 0.25 nM.

Q: `Cc1cccc(S(=O)(=O)Nc2ccc(-c3cc4cnc(N[C@H]5CC[C@H](N(C)C)CC5)nc4n(C(C)C)c3=O)c(C)n2)c1F` [Compound 137, N-(5-(2-(((1r,4r)-4-(Dimethylamino)cyclohexyl)amino)-8-isopropyl-7-oxo-7,8-dihydropyrido[2,3-d]pyrimidin-6-yl)-6-methylpyridin-2-yl)-2-fluoro-3-methylbenzenesulfonamide] was tested. Which IC50 did it give?
A: Its IC50 is 0.48 nM.
